“Also recorded” adds a separate entry of the source. Like-named read-outs stand apart in the source and are kept apart here.
Legend:
[1] = system: ring stage parasites (Pf); test: Parasite lactate dehydrogenase (LDH) growth assay (Parasite Assay, PfLDH Assay); assay type: cell-based, P. falciparum; conditions: Plasmodium falciparum
[2] = system: Plasmodium berghei sporozoites (PbmCherryLuci); test: Chemovaccination of mice: sporozoite liver infection, oral treatment, mosquito bite challenge; assay type: in vivo, Plasmodium berghei in C57BL/6 mice
Protocol: The indicated number of Plasmodium berghei sporozoites expressing mCherry and luciferase reporters (PbmCherryLuci) were inoculated intravenously, and compounds were administered to mice by oral gavage 36 and 48 hours after injection during liver infection. Plasmodium berghei liver infection levels and egress of parasites from the liver were measured by bioluminescence signal from the parasites using the luciferase reporter and an In Vivo Imaging System (IVIS, Perkin Elmer) at the peak of liver infection (52 hours post infection, hpi), during liver egress (55 hpi) as well as during the first round of blood infection (65 hpi). Initiation of blood infection was also measured by flow cytometry at 65 hpi using the mCherry reporter to determine the parasitemia of this first round of blood infection. These analyses allowed quantification of the efficacy of drug killing of parasites in the liver (52 hpi), preventing their egress from the liver (55 hpi) or preventing their successful infection of the blood (65 hpi). Mice were monitored by giemsa stained thin blood smears for the presence of parasites in the blood for 30 days post infection. If no blood infection was seen during the subsequent 30 days, the mice were declared cured of malaria infection thus indicating the chemoprophylactic activity of these compounds.
The chemoprophylactic activity of administered compounds is not to kill liver Plasmodium berghei parasites nor to prevent their egress from the liver, but rather that liver-derived merozoites were unable to initiate a blood infection in these mice. The parasites are thus attenuated by the administered compounds. Such parasite attenuation by genetic means is a powerful vaccination strategy, and as such cure of liver parasites by the compounds could simultaneously be considered as chemoprophylaxis as well as a chemovaccination strategy. Mice previously cured of liver infection with the administered compounds (Chemovaccinated) were challenged with bites from 10 PbmCherryLuci infected mosquitoes at the indicated times after cure of liver infection with the administered compounds to determine the level of immunity engendered by this chemovaccination approach.
C57BL/6 mice were administered Example 2, as described in the general procedure. Thirty nine mice were infected with 40,000 sporozoites. Twenty-one mice were untreated. Six C57BL/6 mice were administered 2×100 mg/kg of Example 2. Six C57BL/6 mice were administered 2×200 mg/kg. Six C57BL/6 mice were administered 2×500 mg/kg. Example 2 dosed at 2×100 mg/kg cured four of six mice of their infection, as did mice dosed with 2×200 mg/kg of Example 2. […] These infections and treatments can be considered immunizations or chemovaccinations, since the parasite is attenuated by Example 2 and is unable to initiate the blood infection.
Additionally, the eight mice previously chemovaccinated with 2×100 mg/kg and 2×200 mg/kg of Example 2 were challenged three months later with bites from 10 mosquitoes infected with PbmCherryLuci sporozoites.

[3] = target: T1, PfPMIX (recombinant plasmepsin IX) (Plasmodium falciparum, UniProt Q8ILG2); test: FRET based assay for plasmepsin IX cleavage of RON3 peptide substrate; assay type: biochemical; conditions: AVG, N=2, pH 5.5
T1 sequence (Q8ILG2 1-627): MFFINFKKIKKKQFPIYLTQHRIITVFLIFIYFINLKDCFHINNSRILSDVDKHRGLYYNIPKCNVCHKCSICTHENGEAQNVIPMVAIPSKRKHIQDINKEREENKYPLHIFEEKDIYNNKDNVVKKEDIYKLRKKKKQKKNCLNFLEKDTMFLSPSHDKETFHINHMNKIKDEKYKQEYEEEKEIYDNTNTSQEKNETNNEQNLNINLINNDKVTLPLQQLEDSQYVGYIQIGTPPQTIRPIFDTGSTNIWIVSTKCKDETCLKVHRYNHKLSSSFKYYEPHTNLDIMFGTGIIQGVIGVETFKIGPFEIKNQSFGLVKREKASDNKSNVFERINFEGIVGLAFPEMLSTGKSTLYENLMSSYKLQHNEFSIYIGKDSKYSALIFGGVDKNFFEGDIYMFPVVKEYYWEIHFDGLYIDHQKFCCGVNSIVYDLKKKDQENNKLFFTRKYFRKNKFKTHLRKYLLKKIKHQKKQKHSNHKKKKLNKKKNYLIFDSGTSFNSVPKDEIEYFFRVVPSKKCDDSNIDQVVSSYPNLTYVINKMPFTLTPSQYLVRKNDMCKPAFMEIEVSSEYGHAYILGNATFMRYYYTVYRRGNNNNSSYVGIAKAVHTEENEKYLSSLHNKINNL
Protocol: (§1) For cleavage assays, 10-point dilution series of the compounds (Compound EC50 determined by LDH assay) were prepared in 1536 well black low volume assay plates (Corning #3728) using an Acoustic Dispenser Echo555 (Labcyte). Appropriate volumes of 10 mM compound stocks were transferred into the assay plates starting at a top dose of 0.9 μM for PfPMX and 90 μM for PfPMIX in a 1:3 fold dilution series with 1% DMSO final concentration. IC50 values were analysed in Graphpad Prism software using a nonlinear regression four-parameter fit analysis. The equation used was sigmoidal dose response (variable slope), Y=bottom+[…].
(§2) All compound potency assays were conducted in 5 μl total volume. […] Samples were excited at 340 nm and fluorescence emission measured at 490 nm using PHERAstar FSX plate reader (BMG). […]
(§3) For cleavage assays, 10-point dilution series of the compounds, recombinant PMIX or PMX, and FRET peptide substrates were prepared in 1536 well plates. Samples were excited at 340 nm and fluorescence emission measured at 492 nm using an Envision fluorescence plate reader (Perkin-Elmer).
(§4) IC50 values were calculated by Dotmatics 5.3 and Spotfire 7.11.1 software using a nonlinear regression four-parameter fit analysis. […]

[4] = target: PfPMX (recombinant plasmepsin X) (Plasmodium falciparum, UniProt Q8IAS0); test: FRET based assay for plasmepsin X cleavage of Rh2 peptide substrate; assay type: biochemical; conditions: AVG, N=2, pH 5.5
PfPMX (recombinant plasmepsin X), sequence (Q8IAS0 222-573): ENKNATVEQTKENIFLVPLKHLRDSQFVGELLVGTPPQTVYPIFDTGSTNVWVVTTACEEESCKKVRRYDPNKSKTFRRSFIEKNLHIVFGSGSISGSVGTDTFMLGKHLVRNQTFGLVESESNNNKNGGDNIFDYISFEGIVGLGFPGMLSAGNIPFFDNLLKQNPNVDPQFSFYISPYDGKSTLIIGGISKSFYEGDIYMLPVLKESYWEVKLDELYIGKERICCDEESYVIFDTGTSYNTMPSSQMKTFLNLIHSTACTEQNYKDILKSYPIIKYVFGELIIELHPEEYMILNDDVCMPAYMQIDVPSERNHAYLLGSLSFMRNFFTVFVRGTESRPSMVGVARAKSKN
Protocol: as §1, §2, §3, §4

[5] = eight mice chemovaccinated once with 2×100 or 2×200 mg/kg, challenged three months later, bites from 10 infected mosquitoes

SMILES: CCC1(CC)CC(=O)N([C@H](c2cccnc2)[C@H]2C[C@@H]2C(=O)N[C@H]2CC(C)(C)Oc3ccccc32)C(=N)N1 [Example 2, (1S,2S)-2-((S)-(4,4-diethyl-2-imino-6-oxotetrahydropyrimidin-1(2H)-yl)(pyridin-3-yl)methyl)-N—((S)-2,2-dimethylchroman-4-yl)cyclopropanecarboxamide]
- EC50 ([1]; 72 h, Table 3, 72 hours growth, LDH readout, read-out: EC50): 0.9 nM
- EC50 ([1]; Table 6, AVG, N=3, read-out: PfLDH Assay (EC50)): 0.86 nM
- mice cured of their infection ([2]; 2×100 mg/kg oral gavage 36 and 48 h after 40,000 sporozoites i.v., 30 days monitoring): four of six
- mice cured of their infection ([2]; 2×200 mg/kg oral gavage 36 and 48 h after 40,000 sporozoites i.v., 30 days monitoring): four of six
- mice cured of their infection (chemoprophylaxis) ([2]; 2×500 mg/kg oral gavage 36 and 48 h after 40,000 sporozoites i.v., 30 days monitoring, FIG. 1): cured all mice of their infection; also recorded: never got malaria
- protection from infection upon mosquito bite challenge after two immunizations ([2]; 2×500 mg/kg twice, challenged 3 months later, bites from 10 infected mosquitoes, FIG. 2): completely protected from infection
- protection after two immunizations ([2]; 2×500 mg/kg twice, mosquito bite challenge 3 months later, FIG. 2): 100%
- development of malaria disease after challenge, one immunization [2, 5]: all mice ultimately developed malaria disease
- infection upon mosquito bite challenge after one immunization [2, 5]: showed a reduction in infection upon challenge
- cure of second infection (boost immunization) ([2]; six mice, six weeks later 20,000 sporozoites, 2×500 mg/kg): cured them of this second infection
- Ki [3]: 5.95 nM
- Ki [4]: 0.026 nM

Source: US20240131028A1, “CHEMOVACCINATION AGAINST PLASMODIUM INFECTION WITH SELECTIVE PLASMEPSIN X INHIBITORS” (Merck Sharp & Dohme LLC, priority 2021, published 2024)
